Tested on: porcine spermatozoa
Experiment: Progressive motility / viability of gametes incubated in fertilizing solution with FB-sp (CASA method, optical microscopy)
Format: cell-based
Procedure: A test of the progressive motility of gametes incubated in fertilizing solution added with the FB-sp bio-stabiliser polypeptide was performed. Progressive gametes are spermatozoa that have normal mobility capacity and are suitable for fertilizing.
It can be seen that the incubation of spermatozoa of porcine boars with FB-sp (●) (10 μM) preserves progressive motility up to 85% of spermatozoa for a period of 7 days, while the control (▪) without stabiliser decreases to a value of 70% on day 7, the difference increases over the days.

Q: Which results are given for “RPGLPVFSPL (Spermatic biostabilizer FB-sp) [polypeptide sperm stabiliser of 10 amino acids: Arg, Pro, Gly, Leu, Pro, Val, Phe, Ser, Pro, Leu]”?
A: progressive motility of spermatozoa preserved (FB-sp 10 μM, 17° C., period of 7 days, porcine boar spermatozoa): up to 85%; survival (extender with FB-sp added, after 7 days): over 65%

— patent US20200045956A1, “POLYPEPTIDE SPERM STABILISER FOR SEMEN USED IN ARTIFICIAL INSEMINATION” (UNIVERSIDAD DE LA FRONTERA, priority 2017, published 2020)
